Measurements as given in US20120277286A1, “COMPOSITIONS AND METHODS FOR THE TREATMENT OR PREVENTION OF MITOCHONDRIAL DISEASES” (The Government of the USA, as represented by the Secretary, …, priority 2009, published 2012).

Assays:
HEK293 cells = assay: Endogenous Parkin localization by immunostaining after depolarization; type: cell-based; settings: 10 μM CCCP
Method: Mitochondrial fission has been linked to the function of Parkin and to the autophagy of small defective mitochondria that lack membrane potential. To test whether mitochondrial depolarization causes Parkin accumulation on mitochondria, HEK293 cells were treated with the mitochondrial uncoupler carbonyl cyanide m-chlorophenylhydrazone (CCCP). Within 1 hour of adding CCCP, endogenous Parkin was recruited to mitochondria in the majority of cells (FIG. 1B) and increased appearance in the heavy membrane pellet on Western blots (FIG. 1C). […] As with endogenous Parkin in HEK293 cells, CCCP exposure induced the redistribution of YFP-Parkin from the cytosol to the mitochondria (FIGS. 1E and F). […] The mitochondrial translocation of Parkin caused by mitochondrial depolarization was also assayed by fluorescence loss in photobleaching (FLIP).
Cultured cells seeded in borosilicate chamber slides (Thermo Fisher Scientific) were transfected or cotransfected with YFP-Parkin, ECFP-Parkin, mCherry-Parkin, DsRed-Mito (Clontech Laboratories, Inc.), pcDNA3.1 (Invitrogen), vMIA, and/or Drp1K38A constructs using Fugene 6 (Roche). Parkin-myc was a gift from M. Cookson (National Institutes of Health, Bethesda, Md.). Cells were fixed 12-24 hours after transfection with 4% paraformaldehyde in PBS. […]

rat cortical neurons = assay: Endogenous Parkin in heavy membrane pellet, Western blot; type: cell-based; settings: CCCP 5 hours
Method: HeLa cells stably expressing YFP-Parkin using the Flp-In system (Invitrogen) were creating according to the manufacturer's instructions and maintained in 300 μg/ml hygromycin (Sigma-Aldrich). Rat cortical neurons were isolated on embryonic day 18 and grown in neurobasal media supplemented with B-27, L-glutamine, and penicillin/streptomycin. All cell culture materials were obtained from Invitrogen and all chemicals were obtained from Sigma-Aldrich. Chemicals were prepared from DMSO stock solutions, except paraquat, N-acetyl-cysteine, and 3-methyladenine, which were added fresh to media. Mfn1−/−, Mfn2−/− and Mfn1−/−, Mfn2−/− double knockout MEFs were generously donated by D. C. […]
Image contrast and brightness were adjusted in Photoshop (Adobe). Colocalization was assessed with line scans using MetaMorph (MDS Analytical Technologies). For analysis of mitochondrial membrane potential in cells, mitochondrial voxels in each image (the cytochrome c channel threshold was ≧400 au) were segregated into Parkin-positive (the YFP-Parkin channel threshold was ≧1,100 au) or Parkin-negative subsets, and MitoTracker intensity for each voxel was measured using Volocity software (Improvision). For each cell, the mean MitoTracker intensity per voxel was calculated for the Parkin-positive and Parkin-negative subsets. […]

## N#CC(C#N)=NNc1cccc(Cl)c1 [CCCP, carbonyl cyanide m-chlorophenylhydrazone]
HEK293 cells
  time to recruitment of endogenous Parkin to mitochondria in the majority of cells: ≤ 1 h
Rat cortical neurons
  endogenous Parkin level in the membrane pellet: increased levels in the membrane pellet
